Laboratory results reported in patent US20200061092A1, “METHODS AND COMPOSITIONS FOR TREATING DISORDERS ASSOCIATED WITH MUSCLE WEAKNESS” (priority 2018, published 2020).

Columns and labels:
[1] = test system: C2C12 myotubes; experiment: LC/MS-MS of isotopically labeled metabolites in differentiated C2C12 myotubes; assay type: cell-based, mouse; settings: 5 mM, 5 days
[2] = test system: muscular dystrophy caused by FKRP mutations; experiment: Ribitol/ribose supplementation in animal model of FKRP mutation muscular dystrophy; assay type: in vivo; settings: supplement via drinking water

Q: How did the “Levels of 13C-ribitol-5P and CDP-13C-ribitol in cells” value [1] turn out when ^13C5-ribitol [^13C-ribitol] was run?
A: clearly elevated levels

Q: For `O=C[C@H](O)[C@H](O)[C@H](O)CO` [ribose], which “Disease pathology of muscular dystrophy caused by FKRP mutations” value [2] is on record?
A: diminish disease pathology
